Results reported in US11542259B2, “Compounds for the treatment of kinase-dependent disorders” (Exelixis, Inc., priority 2018, dated 2023).

Key:
[1] = biological target: KDR (Homo sapiens (Human), UniProt P35968); experiment: KDR autophosphorylation ELISA in HUVEC cells; type: cell-based; conditions: cellular, VEGF165 stimulated
Outline: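 HUVEC, 24 h serum-free starvation; cpd 8-pt dilution, 0.3% DMSO final, 1 h; VEGF165 100 ng/mL, 5 min; cold lysis; phospho-KDR ELISA; IC50, 4PL.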

[2] = biological target: Human Mer (residues R557-E882 with H628Q and R794A) (Homo sapiens (Human), UniProt Q12866); experiment: Human Mer kinase assay (33P radiometric, KinaseProfiler); type: biochemical; conditions: 10 μM ATP
Description: (§1) Kinase activity and compound inhibition were investigated using the ^33P-Phosphoryl transfer radiometric kinase assay, performed using the KinaseProfiler™ service of Eurofins Pharma Discovery Services UK Limited. Dose-response experiments were performed using nine compound concentrations in a 96-well microtiter plate. For each assay, all compounds were prepared to a 50× final assay concentration (50 μM) in 100% DMSO, then diluted in a half-log series, with the final top concentration at 1 μM. This working stock of the compound was added to the assay well as the first component in the reaction, followed by the remaining components as detailed in the following assay protocols below. The positive control wells (100% kinase activity) contain all components of the reaction including 2% DMSO (control for solvent effects), except the compound of interest. Blank wells contain all components of the reaction, with the reference inhibitor, staurosporine. This reference compound was used to abolish kinase activity and generated the 0% kinase activity base-line. IC50 values were calculated by nonlinear regression analysis using the sigmoidal dose-response (variable slope) curve fit on XLFit version 5.3 (ID Business Solutions).
Human Mer (residues R557-E882 with H628Q and R794A, 0.7 nM) was incubated with 8 mM MOPS pH 7.0, 0.2 mM EDTA, 30 mM NaCl, 250 μM GGMEDIYFEFMGGKKK (SEO ID NO. 44). 10 mM magnesium acetate, and 10 μM [γ-^33P-ATP]. The reaction was initiated by the addition of the Mg/ATP mix. After incubation for 40 minutes at room temperature, the reaction was stopped by the addition of phosphoric acid to a concentration of 0.5%. A reaction aliquot of 10 μL was then spotted onto a P30 filtermat and washed four times for 4 minutes in 0.425% phosphoric acid and once in methanol prior to drying and scintillation counting. Incorporated ^33P was measured using the Wallac Microbeta scintillation counter (Perkin Elmer).

[3] = biological target: Human Axl (residues H473-A894 with Q764R) (Homo sapiens (Human), UniProt P30530, Q764R); experiment: Human AXL kinase assay (33P radiometric, KinaseProfiler); type: biochemical; conditions: 10 μM ATP
Description: as §1
Human Axl (residues H473-A894 with Q764R, 161 nM) was incubated with 8 mM MOPS pH 7.0, 0.2 mM EDTA, 250 μM KKSRGDYMTMQIG (SEO ID NO. 43) 10 mM magnesium acetate and 10 μM [γ-33P-ATP]. The reaction was initiated by the addition of the Mg/ATP mix. After incubation for 40 minutes at room temperature, the reaction was stopped by the addition of phosphoric acid to a concentration of 0.5%. A reaction aliquot of 10 μL was then spotted onto a P30 filtermat and washed four times for 4 minutes in 0.425% phosphoric acid and once in methanol prior to drying and scintillation counting. Incorporated ^33P was measured using the Wallac Microbeta scintillation counter (Perkin Elmer).

[4] = biological target: Met (Homo sapiens (Human), UniProt P08581); experiment: Met autophosphorylation ELISA in PC-3 cells; type: cell-based; conditions: cellular, HGF stimulated, read-out: c-Met IC50
Outline: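 PC-3 cells serum-starved 3 h, treated 1 h with 8-point compound series (0.3% DMSO), then stimulated with 100 ng/mL human HGF for 10 min. Lysate phospho-Met (panTyr) measured by sandwich ELISA; IC50 from 4-parameter logistic fit against DMSO and reference-inhibitor controls.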

Human Axl (residues H473-A894 with Q764R), sequence (P30530 473-894 Q764R): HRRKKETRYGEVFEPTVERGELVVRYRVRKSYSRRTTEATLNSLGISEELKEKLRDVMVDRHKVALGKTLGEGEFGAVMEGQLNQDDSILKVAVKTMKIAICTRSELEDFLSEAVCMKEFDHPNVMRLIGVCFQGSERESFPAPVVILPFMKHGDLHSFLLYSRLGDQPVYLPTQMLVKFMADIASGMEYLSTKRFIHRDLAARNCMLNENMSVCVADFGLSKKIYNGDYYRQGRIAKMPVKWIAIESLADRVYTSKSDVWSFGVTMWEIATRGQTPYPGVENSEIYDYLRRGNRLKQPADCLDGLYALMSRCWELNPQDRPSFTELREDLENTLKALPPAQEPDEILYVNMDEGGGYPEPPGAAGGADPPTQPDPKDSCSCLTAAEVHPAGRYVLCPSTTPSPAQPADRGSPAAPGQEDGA
Human Mer (residues R557-E882 with H628Q and R794A), sequence (Q12866 557-882, stated change not applied): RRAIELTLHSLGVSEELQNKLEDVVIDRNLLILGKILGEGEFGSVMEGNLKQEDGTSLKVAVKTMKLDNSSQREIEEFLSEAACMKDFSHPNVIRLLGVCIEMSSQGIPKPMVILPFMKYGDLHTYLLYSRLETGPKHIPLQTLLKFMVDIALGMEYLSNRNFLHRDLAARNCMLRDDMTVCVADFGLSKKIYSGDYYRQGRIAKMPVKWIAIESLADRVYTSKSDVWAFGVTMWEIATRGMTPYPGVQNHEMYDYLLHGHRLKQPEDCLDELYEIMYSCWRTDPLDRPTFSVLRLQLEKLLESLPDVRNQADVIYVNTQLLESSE
Met, sequence (P08581 25-1390): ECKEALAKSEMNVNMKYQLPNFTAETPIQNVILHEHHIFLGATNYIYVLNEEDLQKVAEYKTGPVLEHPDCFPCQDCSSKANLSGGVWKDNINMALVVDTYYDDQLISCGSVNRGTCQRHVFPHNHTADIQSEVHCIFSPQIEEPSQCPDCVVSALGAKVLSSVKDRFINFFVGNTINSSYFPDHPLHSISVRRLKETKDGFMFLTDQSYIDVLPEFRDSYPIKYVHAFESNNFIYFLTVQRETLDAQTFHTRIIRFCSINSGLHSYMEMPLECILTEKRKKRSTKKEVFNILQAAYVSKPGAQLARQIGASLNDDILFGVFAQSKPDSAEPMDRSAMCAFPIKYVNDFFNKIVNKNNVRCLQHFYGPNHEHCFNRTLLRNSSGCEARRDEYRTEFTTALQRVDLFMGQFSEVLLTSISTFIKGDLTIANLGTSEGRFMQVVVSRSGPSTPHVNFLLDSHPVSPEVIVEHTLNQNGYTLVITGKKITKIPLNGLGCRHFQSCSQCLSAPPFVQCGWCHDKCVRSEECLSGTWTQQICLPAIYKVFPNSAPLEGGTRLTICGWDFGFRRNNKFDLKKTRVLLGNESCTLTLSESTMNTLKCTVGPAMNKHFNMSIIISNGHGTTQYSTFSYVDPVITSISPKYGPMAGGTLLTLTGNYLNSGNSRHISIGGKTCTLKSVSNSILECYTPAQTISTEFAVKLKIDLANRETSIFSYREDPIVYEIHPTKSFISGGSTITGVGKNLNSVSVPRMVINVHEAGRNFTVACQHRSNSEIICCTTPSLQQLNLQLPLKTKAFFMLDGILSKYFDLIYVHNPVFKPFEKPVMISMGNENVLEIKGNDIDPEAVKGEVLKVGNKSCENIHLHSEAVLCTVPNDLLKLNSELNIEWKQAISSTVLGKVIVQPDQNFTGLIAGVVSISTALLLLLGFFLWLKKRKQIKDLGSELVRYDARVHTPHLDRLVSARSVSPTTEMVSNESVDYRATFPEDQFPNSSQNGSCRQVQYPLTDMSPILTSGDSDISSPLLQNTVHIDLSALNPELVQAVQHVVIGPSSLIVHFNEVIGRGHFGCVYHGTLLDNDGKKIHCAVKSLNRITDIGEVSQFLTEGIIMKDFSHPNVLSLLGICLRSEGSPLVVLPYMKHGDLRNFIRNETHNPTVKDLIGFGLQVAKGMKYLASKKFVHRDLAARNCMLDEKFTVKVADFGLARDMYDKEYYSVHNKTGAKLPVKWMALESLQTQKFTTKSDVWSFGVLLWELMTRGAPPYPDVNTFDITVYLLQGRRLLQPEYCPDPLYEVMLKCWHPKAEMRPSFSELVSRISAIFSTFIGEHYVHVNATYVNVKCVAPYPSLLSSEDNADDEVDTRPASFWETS
KDR, sequence (P35968 20-1356): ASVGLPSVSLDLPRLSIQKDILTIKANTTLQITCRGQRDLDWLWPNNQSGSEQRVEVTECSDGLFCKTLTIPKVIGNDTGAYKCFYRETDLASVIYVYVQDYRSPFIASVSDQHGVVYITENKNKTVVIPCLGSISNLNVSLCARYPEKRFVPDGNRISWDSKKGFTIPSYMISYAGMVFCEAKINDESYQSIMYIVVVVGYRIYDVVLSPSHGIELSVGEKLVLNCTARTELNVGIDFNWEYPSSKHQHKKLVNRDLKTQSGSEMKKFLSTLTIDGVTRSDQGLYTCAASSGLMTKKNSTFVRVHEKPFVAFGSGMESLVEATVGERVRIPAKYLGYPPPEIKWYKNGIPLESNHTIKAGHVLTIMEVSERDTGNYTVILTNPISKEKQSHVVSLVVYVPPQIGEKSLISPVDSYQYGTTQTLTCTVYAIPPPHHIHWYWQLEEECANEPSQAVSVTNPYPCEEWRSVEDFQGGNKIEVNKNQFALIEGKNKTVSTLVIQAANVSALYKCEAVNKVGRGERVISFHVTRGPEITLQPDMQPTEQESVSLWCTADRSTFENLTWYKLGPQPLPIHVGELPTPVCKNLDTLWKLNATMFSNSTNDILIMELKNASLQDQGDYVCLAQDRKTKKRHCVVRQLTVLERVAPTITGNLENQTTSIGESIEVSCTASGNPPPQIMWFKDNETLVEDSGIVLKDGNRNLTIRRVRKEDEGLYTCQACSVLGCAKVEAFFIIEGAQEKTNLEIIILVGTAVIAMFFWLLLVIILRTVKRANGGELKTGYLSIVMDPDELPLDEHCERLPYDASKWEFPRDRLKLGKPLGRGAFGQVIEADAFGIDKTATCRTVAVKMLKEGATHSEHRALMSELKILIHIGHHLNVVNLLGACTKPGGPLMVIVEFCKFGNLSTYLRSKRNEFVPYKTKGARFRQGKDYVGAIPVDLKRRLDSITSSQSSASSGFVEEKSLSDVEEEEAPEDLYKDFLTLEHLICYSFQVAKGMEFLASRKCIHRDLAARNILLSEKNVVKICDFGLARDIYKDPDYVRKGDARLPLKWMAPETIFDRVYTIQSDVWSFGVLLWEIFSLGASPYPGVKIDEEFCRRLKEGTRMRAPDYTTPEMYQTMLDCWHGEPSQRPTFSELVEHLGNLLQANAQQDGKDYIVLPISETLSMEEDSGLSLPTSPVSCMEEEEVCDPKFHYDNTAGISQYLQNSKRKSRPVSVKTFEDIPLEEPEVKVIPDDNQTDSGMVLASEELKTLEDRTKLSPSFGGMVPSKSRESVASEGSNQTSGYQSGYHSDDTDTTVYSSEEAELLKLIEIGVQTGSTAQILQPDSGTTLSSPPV

| SMILES | IC50 [1] | IC50 [2] | IC50 [3] | IC50 [4] |
| --- | --- | --- | --- | --- |
| COc1cc2nccc(Oc3ccc(NC(=O)C4(C(=O)Nc5ccc(F)cc5)CC4)cc3)c2cc1C(=O)NC1CN(C)C1 [Compound 14, 1-N′-(4-fluorophenyl)-1-N-[4-[7-methoxy-6-[(1-methylazetidin-3-yl)carbamoyl]quinolin-4-yl]oxyphenyl]cyclopropane-1,1-dicarboxamide] | 10 to 100 nM | ≤ 10 nM | 10 to 100 nM | ≤ 10 nM |
| NC(=O)c1cc2c(Oc3ccc(NC(=O)C4(C(=O)Nc5ccc(F)cc5)CC4)cc3)ccnc2cc1F [Compound 67, 1-N-[4-(6-carbamoyl-7-fluoroquinolin-4-yl)oxyphenyl]-1-N′-(4-fluorophenyl)cyclopropane-1,1-dicarboxamide] | 100 to 300 nM | 10 to 100 nM | 10 to 100 nM | 100 to 300 nM |
| COc1cc2nccc(Oc3ccc(NC(=O)C4(C(=O)Nc5ccc(F)cc5)CC4)cc3)c2cc1C1CC1 [Compound 187, 1-N-[4-(6-cyclopropyl-7-methoxyquinolin-4-yl)oxyphenyl]-1-N′-(4-fluorophenyl)cyclopropane-1,1-dicarboxamide] | 10 to 100 nM | ≤ 10 nM | ≤ 10 nM | 10 to 100 nM |
| NC(=O)c1ccc2c(Oc3ccc(NC(=O)C4(C(=O)Nc5ccc(F)cc5)CC4)cc3)ccnc2c1 [Compound 164, 1-N-[4-(7-carbamoylquinolin-4-yl)oxyphenyl]-1-N′-(4-fluorophenyl)cyclopropane-1,1-dicarboxamide] | 10 to 100 nM | ≤ 10 nM | ≤ 10 nM | ≤ 10 nM |
| COc1cc2nccc(Oc3ccc(NC(=O)C4(C(=O)Nc5ccc(F)cc5)CC4)cc3)c2cc1-c1cccc(C#N)c1F [Compound 175, 1-N-[4-[6-(3-cyano-2-fluorophenyl)-7-methoxyquinolin-4-yl]oxyphenyl]-1-N′-(4-fluorophenyl)cyclopropane-1,1-dicarboxamide] | 100 to 300 nM | ≤ 10 nM | 10 to 100 nM | 10 to 100 nM |
| COC(=O)c1ccc2c(Oc3ccc(NC(=O)C4(C(=O)Nc5ccc(F)cc5)CC4)cc3)ccnc2c1 [Compound 162, methyl 4-[4-[[1-[(4-fluorophenyl)carbamoyl]cyclopropanecarbonyl]amino]phenoxy]quinoline-7-carboxylate] | 10 to 100 nM | ≤ 10 nM | 10 to 100 nM | 100 to 300 nM |
| CNC(=O)c1ccc2nccc(Oc3ccc(NC(=O)C4(C(=O)Nc5ccc(F)cc5)CC4)cc3)c2c1 [Compound 59, 1-N′-(4-fluorophenyl)-1-N-[4-[6-(methylcarbamoyl)quinolin-4-yl]oxyphenyl]cyclopropane-1,1-dicarboxamide] | 100 to 300 nM | 10 to 100 nM | 10 to 100 nM | 100 to 300 nM |
| COc1cc2nccc(Oc3ccc(NC(=O)C4(C(=O)Nc5ccc(F)cc5)CC4)cc3)c2cc1C1(O)CN(C(=O)OC(C)(C)C)C1 [Compound 195, tert-butyl 3-[4-[4-[[1-[(4-fluorophenyl)carbamoyl]cyclopropanecarbonyl]amino]phenoxy]-7-methoxyquinolin-6-yl]-3-hydroxyazetidine-1-carboxylate] | 10 to 100 nM | ≤ 10 nM | 10 to 100 nM | 10 to 100 nM |
| COc1cc2nccc(Oc3ccc(NC(=O)C4(C(=O)Nc5ccc(F)cc5)CC4)cc3)c2cc1-c1cccnc1 [Compound 201, 1-N′-(4-Fluorophenyl)-1-N-[4-(7-methoxy-6-pyridin-3-ylquinolin-4-yl)oxyphenyl]cyclopropane-1,1-dicarboxamide] | 10 to 100 nM | ≤ 10 nM | ≤ 10 nM | 10 to 100 nM |
| CNC(=O)c1cc2nccc(Oc3ccc(NC(=O)C4(C(=O)Nc5ccc(F)cc5)CC4)cc3)c2cc1OC [Compound 153, 1-N′-(4-fluorophenyl)-1-N-[4-[6-methoxy-7-(methylcarbamoyl)quinolin-4-yl]oxyphenyl]cyclopropane-1,1-dicarboxamide] | 10 to 100 nM | ≤ 10 nM | 10 to 100 nM | 100 to 300 nM |
| COc1cc2nccc(Oc3ccc(NC(=O)C4(C(=O)Nc5ccc(F)cc5)CC4)cc3)c2cc1-c1ncc[nH]1 [Compound 191, 1-N′-(4-Fluorophenyl)-1-N-[4-[6-(1H-imidazol-2-yl)-7-methoxyquinolin-4-yl]oxyphenyl]cyclopropane-1,1-dicarboxamide] | ≤ 10 nM | – | – | 10 to 100 nM |

The remaining lines, values ahead:

| IC50 [1] | IC50 [2] | IC50 [3] | IC50 [4] | SMILES |
| --- | --- | --- | --- | --- |
| ≤ 10 nM | ≤ 10 nM | ≤ 10 nM | ≤ 10 nM | COc1cc2nccc(Oc3ccc(NC(=O)C4(C(=O)Nc5ccc(F)cc5)CC4)cc3Cl)c2cc1C(N)=O [Compound 132, 1-N′-[4-(6-carbamoyl-7-methoxyquinolin-4-yl)oxy-3-chlorophenyl]-1-N-(4-fluorophenyl)cyclopropane-1,1-dicarboxamide] |
| ≤ 10 nM | ≤ 10 nM | – | ≤ 10 nM | COc1cc2nccc(Oc3ccc(NC(=O)C4(C(=O)Nc5ccc(F)cc5)CC4)cc3)c2cc1-c1ncco1 [Compound 45, 1-N′-(4-fluorophenyl)-1-N-[4-[7-methoxy-6-(1,3-oxazol-2-yl)quinolin-4-yl]oxyphenyl]cyclopropane-1,1-dicarboxamide] |
| ≤ 10 nM | – | – | 10 to 100 nM | CCNC(=O)c1cc2c(Oc3ccc(NC(=O)C4(C(=O)Nc5ccc(F)cc5)CC4)cc3)ccnc2cc1OC [Compound 9, 1-N-[4-[6-(ethylcarbamoyl)-7-methoxyquinolin-4-yl]oxyphenyl]-1-N′-(4-fluorophenyl)cyclopropane-1,1-dicarboxamide] |
| ≤ 10 nM | ≤ 10 nM | ≤ 10 nM | ≤ 10 nM | CNC(=O)c1ccc2c(Oc3ccc(NC(=O)C4(C(=O)Nc5ccc(F)cc5)CC4)cc3)ccnc2c1 [Compound 165, 1-N′-(4-fluorophenyl)-1-N-[4-[7-(methylcarbamoyl)quinolin-4-yl]oxyphenyl]cyclopropane-1,1-dicarboxamide] |
| ≤ 10 nM | ≤ 10 nM | ≤ 10 nM | ≤ 10 nM | COc1cc2nccc(Oc3ccc(NC(=O)C4(C(=O)Nc5ccc(F)cc5)CC4)cc3)c2cc1S(N)(=O)=O [Compound 206, 1-N′-(4-Fluorophenyl)-1-N-[4-(7-methoxy-6-sulfamoylquinolin-4-yl)oxyphenyl]cyclopropane-1,1-dicarboxamide] |
| ≤ 10 nM | ≤ 10 nM | ≤ 10 nM | ≤ 10 nM | COc1cc2nccc(Oc3ccc(NC(=O)C4(C(=O)Nc5ccc(F)cc5)CC4)cc3)c2cc1N1CC(O)C1 [Compound 199, 1-N′-(4-fluorophenyl)-1-N-[4-[6-(3-hydroxyazetidin-1-yl)-7-methoxyquinolin-4-yl]oxyphenyl]cyclopropane-1,1-dicarboxamide] |
| ≤ 10 nM | ≤ 10 nM | – | ≤ 10 nM | COc1cc2nccc(Oc3ccc(NC(=O)C4(C(=O)Nc5ccc(F)cc5)CC4)cc3)c2cc1C(N)=O [Compound 7, 1-N-[4-(6-carbamoyl-7-methoxyquinolin-4-yl)oxyphenyl]-1-N′-(4-fluorophenyl)cyclopropane-1,1-dicarboxamide] |
| ≤ 10 nM | – | – | 10 to 100 nM | CONC(=O)c1cc2c(Oc3ccc(NC(=O)C4(C(=O)Nc5ccc(F)cc5)CC4)cc3)ccnc2cc1OC [Compound 17, 1-N′-(4-fluorophenyl)-1-N-[4-[7-methoxy-6-(methoxycarbamoyl)quinolin-4-yl]oxyphenyl]cyclopropane-1,1-dicarboxamide] |
| ≤ 10 nM | ≤ 10 nM | – | 10 to 100 nM | CNC(=O)c1cc2c(Oc3ccc(NC(=O)C4(C(=O)Nc5ccc(F)cc5)CC4)cc3)ccnc2cc1OC [Compound 8, 1-N′-(4-fluorophenyl)-1-N-[4-[7-methoxy-6-(methylcarbamoyl)quinolin-4-yl]oxyphenyl]cyclopropane-1,1-dicarboxamide] |
